Measured values published in ChEMBL document CHEMBL1201862, “PubChem BioAssay data set” (2004).
Activity calls are given as the source filed them.

Experiments:
[1] = target: Cannabinoid receptor 1 (Homo sapiens, UniProt P21554); assay: SAR analysis of antagonists of the Cannabinoid Receptor 1 using an Image-Based Assay. [Related pubchem assays (depositor defined):AID1961, AID1965]; type: functional
[2] = target: T1, Cannabinoid receptor 2 (Homo sapiens, UniProt P34972); assay: SAR analysis of agonists of the Cannabinoid Receptor 2 using an Image-Based Assay - Set 2. [Related pubchem assays (depositor defined):AID1961, AID1965]; type: functional
T1 sequence (P34972 whole entry): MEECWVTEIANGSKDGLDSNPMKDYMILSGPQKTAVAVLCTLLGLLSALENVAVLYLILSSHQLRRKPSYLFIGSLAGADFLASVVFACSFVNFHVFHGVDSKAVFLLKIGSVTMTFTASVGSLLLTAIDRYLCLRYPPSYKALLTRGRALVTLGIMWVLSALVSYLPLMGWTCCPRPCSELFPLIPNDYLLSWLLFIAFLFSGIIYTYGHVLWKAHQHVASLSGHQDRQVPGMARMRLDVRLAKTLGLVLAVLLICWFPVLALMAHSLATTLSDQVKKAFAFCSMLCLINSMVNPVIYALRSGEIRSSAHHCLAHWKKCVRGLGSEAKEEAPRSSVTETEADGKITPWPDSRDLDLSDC

[3] = target: T2, Heat shock factor protein 1 (Mus musculus, UniProt P38532); assay: inhibition of MG132-induced HSE-luciferase signal, confirmation, cell-based, NIH3T3, luminescence, dose retest (AID 2382); type: functional;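 also: NIH3T3 fibroblasts with HSF1-driven luciferase reporter stressed by proteasome inhibitor MG132; luminescence from HSF1-driven luciferase expression after 8 hours of MG132 stress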
T2 sequence (P38532 whole entry): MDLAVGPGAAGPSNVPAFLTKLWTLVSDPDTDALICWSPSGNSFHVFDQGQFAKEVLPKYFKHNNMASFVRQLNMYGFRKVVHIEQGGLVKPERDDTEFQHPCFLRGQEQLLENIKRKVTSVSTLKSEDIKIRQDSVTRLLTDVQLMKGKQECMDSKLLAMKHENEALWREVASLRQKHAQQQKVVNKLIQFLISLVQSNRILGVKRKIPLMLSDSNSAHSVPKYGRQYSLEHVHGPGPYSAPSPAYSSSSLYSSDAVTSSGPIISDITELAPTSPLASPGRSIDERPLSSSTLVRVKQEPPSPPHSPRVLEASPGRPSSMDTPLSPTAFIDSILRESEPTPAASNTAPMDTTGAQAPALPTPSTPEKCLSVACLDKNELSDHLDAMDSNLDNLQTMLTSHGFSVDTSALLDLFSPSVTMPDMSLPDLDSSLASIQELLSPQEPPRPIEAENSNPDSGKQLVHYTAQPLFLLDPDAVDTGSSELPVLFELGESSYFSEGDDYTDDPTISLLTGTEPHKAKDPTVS

[4] = target: T3, G-protein coupled receptor 55 (Homo sapiens, UniProt Q9Y2T6); assay: GPR55 agonists via beta-arrestin recruitment, primary screen, imaging, U2OS cells, beta-arrestin-GFP redistribution (AID 1961); type: functional
T3 sequence (Q9Y2T6 whole entry): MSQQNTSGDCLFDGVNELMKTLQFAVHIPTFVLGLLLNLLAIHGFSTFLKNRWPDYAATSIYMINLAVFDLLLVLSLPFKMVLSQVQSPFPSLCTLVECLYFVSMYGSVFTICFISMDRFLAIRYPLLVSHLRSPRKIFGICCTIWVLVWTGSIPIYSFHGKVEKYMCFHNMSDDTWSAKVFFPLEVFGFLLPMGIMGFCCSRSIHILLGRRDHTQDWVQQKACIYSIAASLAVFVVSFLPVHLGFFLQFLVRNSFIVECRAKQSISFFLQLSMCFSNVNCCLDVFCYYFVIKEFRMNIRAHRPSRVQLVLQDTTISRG

[5] = target: T3, G-protein coupled receptor 55; assay: SAR analysis of selective Agonists of GPR55 using an Image-Based Assay. [Related pubchem assays (depositor defined):AID1961, AID1965]; type: functional
[6] = target: T1, Cannabinoid receptor 2; assay: SAR analysis of antagonists of the Cannabinoid Receptor 2 using an Image-Based Assay - Set 2. [Related pubchem assays (depositor defined):AID1961, AID1965]; type: functional
[7] = target: T4, Cysteine protease ATG4B (Homo sapiens, UniProt Q9Y4P1); type: functional;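 also: Fluorescence-based dose-response confirmation assay measuring inhibition of ATG4B activity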
T4 sequence (Q9Y4P1 whole entry): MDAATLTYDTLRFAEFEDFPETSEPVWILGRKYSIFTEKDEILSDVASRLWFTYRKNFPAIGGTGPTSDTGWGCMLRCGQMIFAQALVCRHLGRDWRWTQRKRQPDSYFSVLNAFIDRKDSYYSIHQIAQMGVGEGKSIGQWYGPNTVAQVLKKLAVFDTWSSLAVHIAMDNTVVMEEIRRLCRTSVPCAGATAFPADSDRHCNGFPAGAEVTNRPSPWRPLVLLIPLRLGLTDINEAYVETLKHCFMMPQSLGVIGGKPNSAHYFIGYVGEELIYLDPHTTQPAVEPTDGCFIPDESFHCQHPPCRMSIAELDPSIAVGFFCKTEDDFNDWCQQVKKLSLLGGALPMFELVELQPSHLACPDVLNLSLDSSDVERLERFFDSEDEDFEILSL

[8] = target: Phospholipase A2 (Homo sapiens, UniProt P04054); type: functional;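 also: confirmatory dose-response counterscreen on phospholipase A2, testing hits that came from an ultra-high-throughput screen for ATG4B inhibitors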
Phospholipase A2, sequence (P04054 whole entry): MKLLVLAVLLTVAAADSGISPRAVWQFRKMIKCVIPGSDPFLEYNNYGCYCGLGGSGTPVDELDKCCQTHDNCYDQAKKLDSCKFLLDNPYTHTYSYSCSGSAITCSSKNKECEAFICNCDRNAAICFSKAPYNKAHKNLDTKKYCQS

[9] = system: H9c2; assay: cells; type: functional, cell-based; settings: Rattus norvegicus, H9c2, Myocardium;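 also: confirmatory concentration-response retest of ultra-high-throughput screening hits for modulation of myocardial damage; cell death induced by hydrogen peroxide oxidative stress; compound pretreatment for 60 min then peroxide exposure for 2 h; potency is for protecting the cells against peroxide damage rather than for killing them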
[10] = Counterscreen for AddAB inhibitors: absorbance-based bacterial cell-based high throughput dose response assay for inhibitors of bacterial viability. [Related pubchem assays (depositor defined):AID435030, AID449728, AID449731, AID488942, AID488955, AID488956]; type: functional
[11] = target: Exodeoxyribonuclease V (Escherichia coli (strain K12), UniProt P04993+P07648+P08394); assay: E. coli RecBCD inhibitors, dose response, counter-screen for AddAB inhibitor project, absorbance, V66 E. coli, mutant T4 phage (AID 492957); type: functional, cell-based, Escherichia coli str. K-12 substr. MG1655
Exodeoxyribonuclease V, sequence (P04993 whole entry): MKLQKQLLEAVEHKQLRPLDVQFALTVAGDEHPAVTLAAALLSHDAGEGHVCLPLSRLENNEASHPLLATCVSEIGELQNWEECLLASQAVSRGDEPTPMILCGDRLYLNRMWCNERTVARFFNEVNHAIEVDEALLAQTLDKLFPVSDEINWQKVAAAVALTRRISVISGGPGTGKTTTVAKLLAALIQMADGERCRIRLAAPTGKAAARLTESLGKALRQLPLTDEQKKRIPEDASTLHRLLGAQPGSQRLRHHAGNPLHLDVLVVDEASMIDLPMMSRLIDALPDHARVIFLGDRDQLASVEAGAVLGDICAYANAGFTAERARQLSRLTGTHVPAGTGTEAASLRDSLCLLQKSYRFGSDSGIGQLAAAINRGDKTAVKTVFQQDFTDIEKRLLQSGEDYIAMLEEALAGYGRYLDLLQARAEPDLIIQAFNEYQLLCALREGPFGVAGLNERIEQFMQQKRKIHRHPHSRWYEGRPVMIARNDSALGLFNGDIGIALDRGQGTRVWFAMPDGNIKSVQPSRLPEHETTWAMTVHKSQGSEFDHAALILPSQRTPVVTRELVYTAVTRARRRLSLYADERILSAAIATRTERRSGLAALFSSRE
Exodeoxyribonuclease V, sequence (P07648 whole entry): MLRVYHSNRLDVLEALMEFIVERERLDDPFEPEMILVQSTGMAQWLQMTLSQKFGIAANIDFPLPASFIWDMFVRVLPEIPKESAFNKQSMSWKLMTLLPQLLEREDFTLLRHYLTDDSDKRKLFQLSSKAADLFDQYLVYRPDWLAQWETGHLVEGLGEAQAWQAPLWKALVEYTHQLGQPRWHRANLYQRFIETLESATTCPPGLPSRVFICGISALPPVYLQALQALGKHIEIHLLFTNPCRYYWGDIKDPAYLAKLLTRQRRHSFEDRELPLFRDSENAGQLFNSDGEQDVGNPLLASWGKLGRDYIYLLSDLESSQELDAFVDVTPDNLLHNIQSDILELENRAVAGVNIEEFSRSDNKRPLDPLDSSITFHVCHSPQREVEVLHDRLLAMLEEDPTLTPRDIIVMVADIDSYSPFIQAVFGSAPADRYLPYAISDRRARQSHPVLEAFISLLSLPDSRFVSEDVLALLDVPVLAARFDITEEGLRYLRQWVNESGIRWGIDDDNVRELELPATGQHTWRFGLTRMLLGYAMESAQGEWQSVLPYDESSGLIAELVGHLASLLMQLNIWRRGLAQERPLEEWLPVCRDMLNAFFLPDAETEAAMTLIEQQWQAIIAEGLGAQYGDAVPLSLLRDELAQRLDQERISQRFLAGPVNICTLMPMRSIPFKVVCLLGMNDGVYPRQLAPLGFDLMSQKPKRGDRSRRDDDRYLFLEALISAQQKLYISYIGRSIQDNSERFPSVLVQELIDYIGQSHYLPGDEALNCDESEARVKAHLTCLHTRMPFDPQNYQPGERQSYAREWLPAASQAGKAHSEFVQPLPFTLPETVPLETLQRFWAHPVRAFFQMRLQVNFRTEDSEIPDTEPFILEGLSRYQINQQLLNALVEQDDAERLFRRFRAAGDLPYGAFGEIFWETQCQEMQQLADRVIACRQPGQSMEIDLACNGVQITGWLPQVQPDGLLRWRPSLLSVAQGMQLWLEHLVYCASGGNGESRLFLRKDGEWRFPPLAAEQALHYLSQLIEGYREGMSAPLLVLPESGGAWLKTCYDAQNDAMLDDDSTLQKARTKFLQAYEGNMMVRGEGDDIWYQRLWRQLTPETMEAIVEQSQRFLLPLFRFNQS
Exodeoxyribonuclease V, sequence (P08394 whole entry): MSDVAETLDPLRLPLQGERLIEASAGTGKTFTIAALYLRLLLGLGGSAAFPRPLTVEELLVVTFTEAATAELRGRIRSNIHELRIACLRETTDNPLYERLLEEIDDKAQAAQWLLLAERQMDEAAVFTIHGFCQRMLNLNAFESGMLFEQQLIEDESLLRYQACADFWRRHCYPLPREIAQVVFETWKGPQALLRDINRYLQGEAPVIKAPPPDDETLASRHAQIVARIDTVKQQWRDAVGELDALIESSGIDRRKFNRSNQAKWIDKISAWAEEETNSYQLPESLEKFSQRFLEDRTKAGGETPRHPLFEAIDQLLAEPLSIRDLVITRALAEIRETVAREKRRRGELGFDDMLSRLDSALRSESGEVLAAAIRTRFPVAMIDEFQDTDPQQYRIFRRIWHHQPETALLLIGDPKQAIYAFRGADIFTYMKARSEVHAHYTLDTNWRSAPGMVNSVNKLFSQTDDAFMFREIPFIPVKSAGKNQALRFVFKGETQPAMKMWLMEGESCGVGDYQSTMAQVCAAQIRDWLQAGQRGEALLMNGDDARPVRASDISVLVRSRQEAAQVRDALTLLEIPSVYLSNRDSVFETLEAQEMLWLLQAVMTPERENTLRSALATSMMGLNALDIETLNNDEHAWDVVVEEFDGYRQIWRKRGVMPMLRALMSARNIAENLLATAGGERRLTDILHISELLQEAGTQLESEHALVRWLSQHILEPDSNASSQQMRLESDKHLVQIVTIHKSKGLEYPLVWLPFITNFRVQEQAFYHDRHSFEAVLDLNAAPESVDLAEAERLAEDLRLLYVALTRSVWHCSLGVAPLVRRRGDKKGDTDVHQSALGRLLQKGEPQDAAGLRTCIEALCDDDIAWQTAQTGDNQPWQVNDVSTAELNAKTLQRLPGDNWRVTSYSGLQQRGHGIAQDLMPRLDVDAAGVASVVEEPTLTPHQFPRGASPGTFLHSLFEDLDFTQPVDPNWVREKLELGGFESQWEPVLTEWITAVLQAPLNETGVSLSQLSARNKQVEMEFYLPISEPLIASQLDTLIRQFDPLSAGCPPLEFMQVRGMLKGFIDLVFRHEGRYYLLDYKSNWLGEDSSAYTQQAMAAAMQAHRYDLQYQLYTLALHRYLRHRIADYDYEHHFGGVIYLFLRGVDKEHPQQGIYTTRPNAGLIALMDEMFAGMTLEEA

Cannabinoid receptor 1, sequence (P21554 whole entry): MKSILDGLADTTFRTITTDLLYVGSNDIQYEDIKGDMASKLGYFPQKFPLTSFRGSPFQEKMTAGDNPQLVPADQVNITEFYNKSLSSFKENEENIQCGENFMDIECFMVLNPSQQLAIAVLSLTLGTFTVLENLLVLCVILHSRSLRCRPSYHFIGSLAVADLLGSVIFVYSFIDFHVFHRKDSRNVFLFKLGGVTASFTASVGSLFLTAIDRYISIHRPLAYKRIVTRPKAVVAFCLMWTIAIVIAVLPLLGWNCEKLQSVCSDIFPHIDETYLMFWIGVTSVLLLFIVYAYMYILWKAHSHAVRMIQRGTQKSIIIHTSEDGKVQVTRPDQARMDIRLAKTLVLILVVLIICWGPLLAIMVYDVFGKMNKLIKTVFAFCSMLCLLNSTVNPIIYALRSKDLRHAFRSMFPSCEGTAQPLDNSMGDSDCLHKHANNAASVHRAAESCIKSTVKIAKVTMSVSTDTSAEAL

Row | SMILES | IC50 [1] | EC50 [2] | EC50 [3] | EC50 [4] | EC50 [5] | IC50 [6] | IC50 [7] | IC50 [8] | IC50 [9] | IC50 [10] | IC50 [11]
1 | COc1cc2c(cc1NC(=O)C(C)Sc1ccc(NC(C)=O)cc1)oc1ccccc12 (stereo unspecified) | > 32 µM (inactive) | > 32 µM (inactive) | > 195 µM (not active) | 806 nM (active) | 865 nM (active) | > 32 µM (inactive) | 14.7 µM (active) | 10 µM (active) |  |  | 
2 | O=C1c2ccccc2NC(c2ccc(-c3cccc([N+](=O)[O-])c3)o2)N1O (stereo unspecified) |  |  |  |  |  |  |  |  | 11.9 µM (active) | > 119 µM (inactive) | > 119 µM (inactive)
